Assay results reported in ChEMBL document CHEMBL1201862, “PubChem BioAssay data set” (2004).
The source made the active and inactive calls.

How the values were obtained:
[1] = M. tuberculosis H37Rv growth inhibitors, H37Rv strain (AID 1626); type: functional
[2] = biological target: T1, Bcl-2-like protein 10 (Homo sapiens, UniProt Q9HD36); test: displacers of TR3 peptide from Bcl-B, primary screen, selectivity assay for Bfl-1 inhibitor project, biochemical, fluorescence polarization, FITC-TR3 peptide (AID 748);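 note: fluorescence polarization from a fluorescein-labelled TR3 peptide binding purified Bcl-B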
T1 sequence (Q9HD36 whole entry): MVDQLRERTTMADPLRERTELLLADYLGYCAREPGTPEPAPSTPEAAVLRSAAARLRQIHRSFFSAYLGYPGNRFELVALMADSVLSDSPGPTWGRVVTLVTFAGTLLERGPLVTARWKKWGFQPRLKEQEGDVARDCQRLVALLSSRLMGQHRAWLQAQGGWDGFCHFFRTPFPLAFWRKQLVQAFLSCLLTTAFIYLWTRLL

[3] = biological target: T2, Carboxy-terminal domain RNA polymerase II polypeptide A small phosphatase 1 (Homo sapiens, UniProt Q9GZU7); test: inhibitors of CTDSP1, concentration-response testing, biochemical assay, absorbance-based, actives from ultra-high-throughput screening (AID 540297); type: functional
T2 sequence (Q9GZU7 whole entry): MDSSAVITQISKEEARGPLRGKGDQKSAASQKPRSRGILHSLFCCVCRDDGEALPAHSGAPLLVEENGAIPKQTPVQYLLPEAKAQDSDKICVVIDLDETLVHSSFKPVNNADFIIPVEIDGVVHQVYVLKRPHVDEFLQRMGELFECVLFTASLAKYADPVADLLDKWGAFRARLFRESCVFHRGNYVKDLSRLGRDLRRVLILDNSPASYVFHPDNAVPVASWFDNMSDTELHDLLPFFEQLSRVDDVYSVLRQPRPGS

[4] = biological target: T3, DNA dC->dU-editing enzyme APOBEC-3A (Homo sapiens, UniProt P31941); test: Dose Response confirmation of small molecule APOBEC3A DNA Deaminase Inhibitors via a fluorescence-based single-stranded DNA deaminase assay. [Related pubchem assays (depositor defined):AID493011, AID493024]; type: functional
T3 sequence (P31941 whole entry): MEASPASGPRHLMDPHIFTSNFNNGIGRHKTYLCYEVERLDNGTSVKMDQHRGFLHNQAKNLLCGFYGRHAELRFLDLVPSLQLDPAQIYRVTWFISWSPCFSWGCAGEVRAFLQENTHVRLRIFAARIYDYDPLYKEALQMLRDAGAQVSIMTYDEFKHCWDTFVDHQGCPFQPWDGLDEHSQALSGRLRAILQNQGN

[5] = biological target: Ion channel NompC (Danio rerio, UniProt Q7T1G6); test: Fluorescence counterscreen assay for TRPML3 agonists: dose response cell-based high-throughput screening assay to identify agonists of the transient receptor potential channel N1 (TRPN1). [Related pubchem assays: 1526, 1424, 1448 ]; type: functional
[6] = cells; type: functional, cell-based; conditions: HEK-CNG
[7] = biological target: Galanin receptor type 3 (Homo sapiens, UniProt O60755); test: Fluorescence-based cell-based primary high throughput dose response assay to identify antagonists of the Galanin Receptor 3 (GalR3).; type: functional
[8] = biological target: T4, DNA dC->dU-editing enzyme APOBEC-3G (Homo sapiens, UniProt Q9HC16); type: functional
[9] = biological target: T5, Mucolipin-3 (Homo sapiens, UniProt Q8TDD5); test: Dose response cell-based high-throughput screening assay for agonists of the transient receptor potential channel ML3 (TRPML3). [Related pubchem assays: 1526, 1424, 1448 ]; type: functional
T5 sequence (Q8TDD5 whole entry): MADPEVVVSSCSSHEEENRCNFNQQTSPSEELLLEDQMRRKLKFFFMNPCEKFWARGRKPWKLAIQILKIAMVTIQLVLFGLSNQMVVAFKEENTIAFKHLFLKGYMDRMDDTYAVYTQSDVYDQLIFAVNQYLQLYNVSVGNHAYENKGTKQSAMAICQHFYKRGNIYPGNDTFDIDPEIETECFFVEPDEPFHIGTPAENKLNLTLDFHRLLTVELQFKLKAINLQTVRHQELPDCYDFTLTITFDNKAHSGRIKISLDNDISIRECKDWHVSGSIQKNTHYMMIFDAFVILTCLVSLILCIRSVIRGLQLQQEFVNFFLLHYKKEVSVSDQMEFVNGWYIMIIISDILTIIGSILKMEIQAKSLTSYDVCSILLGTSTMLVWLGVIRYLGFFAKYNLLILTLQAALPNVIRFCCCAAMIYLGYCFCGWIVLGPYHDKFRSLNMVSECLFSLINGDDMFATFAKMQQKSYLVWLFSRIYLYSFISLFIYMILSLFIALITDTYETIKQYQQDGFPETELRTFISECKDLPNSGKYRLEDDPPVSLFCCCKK

[10] = tested on: HEK293; test: inhibitors of LMP1-driven NF-kB reporter, dose response, cell-based, HEK293, luciferase, cherry-pick (AID 588343); type: functional; conditions: Homo sapiens
[11] = biological target: G-protein coupled receptor 35 (Homo sapiens, UniProt Q9HC97); test: GPR35 antagonists blocking zaprinast-driven arrestin recruitment, primary screen, imaging, U2OS, beta-arrestin-GFP, zaprinast agonist (AID 2058); type: functional;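 note: antagonist potency meaning inhibition of agonist-induced arrestin redistribution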
[12] = biological target: T6, Zinc finger protein mex-5 (Caenorhabditis elegans, UniProt Q9XUB2); test: MEX-5/TCR-2 RNA interaction inhibitors, dose response, biochemical, C. elegans, fluorescence polarization (AID 1960)
T6 sequence (Q9XUB2 whole entry): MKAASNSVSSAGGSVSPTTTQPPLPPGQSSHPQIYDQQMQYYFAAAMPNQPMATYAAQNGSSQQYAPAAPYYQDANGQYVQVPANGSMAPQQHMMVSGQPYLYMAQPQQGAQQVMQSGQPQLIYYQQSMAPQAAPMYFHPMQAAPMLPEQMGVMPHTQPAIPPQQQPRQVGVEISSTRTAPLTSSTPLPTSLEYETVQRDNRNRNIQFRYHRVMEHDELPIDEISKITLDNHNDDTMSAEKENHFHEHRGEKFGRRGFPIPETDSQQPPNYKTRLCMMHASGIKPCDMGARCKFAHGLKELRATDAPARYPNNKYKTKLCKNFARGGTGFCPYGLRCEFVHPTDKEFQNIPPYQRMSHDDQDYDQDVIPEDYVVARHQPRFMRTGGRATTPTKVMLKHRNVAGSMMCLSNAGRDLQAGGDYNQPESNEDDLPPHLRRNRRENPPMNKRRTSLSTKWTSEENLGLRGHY

[13] = biological target: T7, RNA-binding protein pos-1 (Caenorhabditis elegans, UniProt G5EF15); test: inhibitors of POS-1/mex-3 RNA binding, dose response, biochemical, fluorescence polarization (AID 1964);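 note: purified POS-1 fused to maltose binding protein made in E. coli; potency of compounds blocking POS-1 binding to fluorescent RNA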
T7 sequence (G5EF15 whole entry): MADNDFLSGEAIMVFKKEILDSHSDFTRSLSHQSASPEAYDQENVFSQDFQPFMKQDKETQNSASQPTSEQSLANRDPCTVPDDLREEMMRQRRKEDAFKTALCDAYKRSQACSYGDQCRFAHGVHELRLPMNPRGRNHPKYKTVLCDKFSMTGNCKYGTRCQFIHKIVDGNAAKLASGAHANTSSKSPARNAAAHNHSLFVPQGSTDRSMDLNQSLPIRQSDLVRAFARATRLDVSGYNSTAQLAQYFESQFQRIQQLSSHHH

[14] = tested on: Vero; test: host cell cytotoxicity of antiviral hits, dose response, cytotoxicity control for West Nile virus antiviral project, secondary assay (AID 1650); type: functional; conditions: Chlorocebus sabaeus
[15] = Shn3 3'UTR reporter inhibitors, dose response, cell-based, Clone20 osteoblasts, firefly luciferase, cherry-picked (AID 624132); type: functional;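 note: firefly luciferase luminescence from reporter carrying the Shn3 3'UTR in osteoblasts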
[16] = control 3'UTR Renilla luciferase suppression, dose response, counter-screen for Shn3 inhibitor project, cell-based, Clone20-Shn3RL, cherry-picked (AID 624133); type: functional
[17] = cytotoxicity in HEK-293T cells, dose response, cytotoxicity control for TCR NF-kB inhibitor project, luminescence, T-cell screen hits (AID 489026); type: functional, cell-based;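 note: cells exposed to compound about 14 hours before the viability readout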
[18] = biological target: T8, Probable nicotinate-nucleotide adenylyltransferase (Staphylococcus aureus (strain N315), UniProt P65502); type: functional, Staphylococcus aureus subsp. aureus N315;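 for IC50 Mean: confirmatory dose-response retesting of NadD inhibitor hits first found in an ultra-high-throughput screen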
T8 sequence (P65502 whole entry): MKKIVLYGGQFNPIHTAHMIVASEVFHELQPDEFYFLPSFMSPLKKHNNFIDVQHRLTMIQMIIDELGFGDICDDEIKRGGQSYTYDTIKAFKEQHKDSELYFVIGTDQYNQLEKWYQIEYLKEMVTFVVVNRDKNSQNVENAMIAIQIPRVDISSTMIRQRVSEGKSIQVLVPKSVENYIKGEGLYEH

[19] = biological target: T8, Probable nicotinate-nucleotide adenylyltransferase; type: functional, Staphylococcus aureus subsp. aureus N315; conditions: read-out: IC50_Mean
[20] = HIV-1 Env-mediated cell fusion inhibitors, dose response, CCR5-tropic Env (AID 2279); type: functional
[21] = biological target: T9, Fatty acid synthase (Homo sapiens, UniProt P49327); test: FAS thioesterase domain inhibitors, dose response, biochemical, endpoint fluorescence intensity, uHTS hits (AID 624327); type: functional;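 note: fluorescence from hydrolysis of an O-methyl fluorescein acyl ester substrate by the enzyme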
[22] = biological target: T9, Fatty acid synthase; test: FAS thioesterase domain inhibitors, dose response, biochemical, kinetic fluorescence intensity (AID 624326); type: functional;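 note: rate of fluorescence rise from hydrolysis of a fluorogenic O-methyl fluorescein ester substrate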
[23] = biological target: T3, DNA dC->dU-editing enzyme APOBEC-3A; test: APOBEC3A DNA deaminase inhibitors, dose response, biochemical (AID 504722); type: functional
[24] = biological target: T4, DNA dC->dU-editing enzyme APOBEC-3G; test: Dose Response confirmation of small molecule APOBEC3G DNA Deaminase Inhibitors via a fluorescence-based single-stranded DNA deaminase assay. [Related pubchem assays (depositor defined):AID493012, AID493028]; type: functional
[25] = biological target: Peroxisome proliferator-activated receptor gamma/Nuclear receptor coactivator 2 (Homo sapiens, UniProt P37231); type: functional;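 note: agonist potency for raising coactivator recruitment to the receptor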
Sequence of Peroxisome proliferator-activated receptor gamma/Nuclear receptor coactivator 2 (P37231 whole entry): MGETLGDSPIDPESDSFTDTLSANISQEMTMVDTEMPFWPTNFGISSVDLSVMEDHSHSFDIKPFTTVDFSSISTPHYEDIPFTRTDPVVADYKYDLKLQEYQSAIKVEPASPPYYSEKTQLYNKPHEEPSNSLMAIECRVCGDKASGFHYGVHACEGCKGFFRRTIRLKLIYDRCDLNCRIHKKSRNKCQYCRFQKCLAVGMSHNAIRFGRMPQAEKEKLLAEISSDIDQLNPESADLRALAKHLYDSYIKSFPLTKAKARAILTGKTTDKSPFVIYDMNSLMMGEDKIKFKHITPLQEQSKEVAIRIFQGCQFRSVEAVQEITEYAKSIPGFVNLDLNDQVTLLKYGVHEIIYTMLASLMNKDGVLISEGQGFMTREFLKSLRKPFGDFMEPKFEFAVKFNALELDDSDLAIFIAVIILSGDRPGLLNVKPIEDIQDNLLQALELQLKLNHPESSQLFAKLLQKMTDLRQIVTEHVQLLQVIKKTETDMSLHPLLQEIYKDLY
Sequence of Peroxisome proliferator-activated receptor gamma/Nuclear receptor coactivator 2 (Q15596 whole entry, further chain): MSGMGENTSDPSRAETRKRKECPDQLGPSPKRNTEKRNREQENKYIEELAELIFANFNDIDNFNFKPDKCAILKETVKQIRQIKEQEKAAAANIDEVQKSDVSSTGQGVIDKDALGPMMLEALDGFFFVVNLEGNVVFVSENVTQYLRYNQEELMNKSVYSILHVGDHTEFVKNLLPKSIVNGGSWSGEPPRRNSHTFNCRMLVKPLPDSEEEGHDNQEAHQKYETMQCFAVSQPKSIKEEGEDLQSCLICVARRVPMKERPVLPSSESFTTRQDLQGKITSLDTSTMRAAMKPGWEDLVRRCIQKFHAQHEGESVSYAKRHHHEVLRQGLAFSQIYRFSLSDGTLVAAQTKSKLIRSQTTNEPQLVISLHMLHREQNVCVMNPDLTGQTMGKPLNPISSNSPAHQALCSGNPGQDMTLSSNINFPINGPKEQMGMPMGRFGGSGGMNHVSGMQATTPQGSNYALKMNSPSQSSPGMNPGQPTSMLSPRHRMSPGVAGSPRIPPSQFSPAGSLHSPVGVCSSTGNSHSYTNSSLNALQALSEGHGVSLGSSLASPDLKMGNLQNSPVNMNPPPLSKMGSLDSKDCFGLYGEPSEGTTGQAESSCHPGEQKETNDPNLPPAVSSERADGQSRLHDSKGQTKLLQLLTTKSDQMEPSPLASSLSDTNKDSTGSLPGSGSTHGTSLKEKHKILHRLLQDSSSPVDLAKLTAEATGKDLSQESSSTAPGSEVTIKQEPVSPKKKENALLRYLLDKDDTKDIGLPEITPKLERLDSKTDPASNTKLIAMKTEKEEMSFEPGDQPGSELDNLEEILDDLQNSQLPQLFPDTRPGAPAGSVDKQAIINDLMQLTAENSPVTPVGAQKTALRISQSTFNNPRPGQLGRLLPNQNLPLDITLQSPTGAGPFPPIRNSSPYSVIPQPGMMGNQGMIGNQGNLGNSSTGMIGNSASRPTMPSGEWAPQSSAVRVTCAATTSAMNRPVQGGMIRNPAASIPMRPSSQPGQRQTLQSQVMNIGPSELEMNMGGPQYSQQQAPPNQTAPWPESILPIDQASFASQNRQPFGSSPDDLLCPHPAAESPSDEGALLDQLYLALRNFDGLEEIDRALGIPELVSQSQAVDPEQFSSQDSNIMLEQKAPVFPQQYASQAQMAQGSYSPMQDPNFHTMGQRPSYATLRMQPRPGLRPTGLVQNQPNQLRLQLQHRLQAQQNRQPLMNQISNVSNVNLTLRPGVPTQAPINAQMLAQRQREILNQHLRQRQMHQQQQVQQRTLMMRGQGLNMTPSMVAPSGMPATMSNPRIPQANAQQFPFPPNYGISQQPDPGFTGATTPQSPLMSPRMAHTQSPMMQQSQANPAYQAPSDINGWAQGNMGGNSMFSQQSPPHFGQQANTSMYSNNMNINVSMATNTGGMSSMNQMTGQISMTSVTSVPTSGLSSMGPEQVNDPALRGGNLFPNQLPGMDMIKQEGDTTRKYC

[26] = biological target: Peroxisome proliferator-activated receptor gamma/Nuclear receptor coactivator 3 (Homo sapiens, UniProt P37231); type: functional;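 note: agonist potency for raising coactivator recruitment to the receptor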
Sequence of Peroxisome proliferator-activated receptor gamma/Nuclear receptor coactivator 3 (P37231 whole entry): as the sequence (P37231 whole entry) above
Sequence of Peroxisome proliferator-activated receptor gamma/Nuclear receptor coactivator 3 (Q9Y6Q9 whole entry, further chain): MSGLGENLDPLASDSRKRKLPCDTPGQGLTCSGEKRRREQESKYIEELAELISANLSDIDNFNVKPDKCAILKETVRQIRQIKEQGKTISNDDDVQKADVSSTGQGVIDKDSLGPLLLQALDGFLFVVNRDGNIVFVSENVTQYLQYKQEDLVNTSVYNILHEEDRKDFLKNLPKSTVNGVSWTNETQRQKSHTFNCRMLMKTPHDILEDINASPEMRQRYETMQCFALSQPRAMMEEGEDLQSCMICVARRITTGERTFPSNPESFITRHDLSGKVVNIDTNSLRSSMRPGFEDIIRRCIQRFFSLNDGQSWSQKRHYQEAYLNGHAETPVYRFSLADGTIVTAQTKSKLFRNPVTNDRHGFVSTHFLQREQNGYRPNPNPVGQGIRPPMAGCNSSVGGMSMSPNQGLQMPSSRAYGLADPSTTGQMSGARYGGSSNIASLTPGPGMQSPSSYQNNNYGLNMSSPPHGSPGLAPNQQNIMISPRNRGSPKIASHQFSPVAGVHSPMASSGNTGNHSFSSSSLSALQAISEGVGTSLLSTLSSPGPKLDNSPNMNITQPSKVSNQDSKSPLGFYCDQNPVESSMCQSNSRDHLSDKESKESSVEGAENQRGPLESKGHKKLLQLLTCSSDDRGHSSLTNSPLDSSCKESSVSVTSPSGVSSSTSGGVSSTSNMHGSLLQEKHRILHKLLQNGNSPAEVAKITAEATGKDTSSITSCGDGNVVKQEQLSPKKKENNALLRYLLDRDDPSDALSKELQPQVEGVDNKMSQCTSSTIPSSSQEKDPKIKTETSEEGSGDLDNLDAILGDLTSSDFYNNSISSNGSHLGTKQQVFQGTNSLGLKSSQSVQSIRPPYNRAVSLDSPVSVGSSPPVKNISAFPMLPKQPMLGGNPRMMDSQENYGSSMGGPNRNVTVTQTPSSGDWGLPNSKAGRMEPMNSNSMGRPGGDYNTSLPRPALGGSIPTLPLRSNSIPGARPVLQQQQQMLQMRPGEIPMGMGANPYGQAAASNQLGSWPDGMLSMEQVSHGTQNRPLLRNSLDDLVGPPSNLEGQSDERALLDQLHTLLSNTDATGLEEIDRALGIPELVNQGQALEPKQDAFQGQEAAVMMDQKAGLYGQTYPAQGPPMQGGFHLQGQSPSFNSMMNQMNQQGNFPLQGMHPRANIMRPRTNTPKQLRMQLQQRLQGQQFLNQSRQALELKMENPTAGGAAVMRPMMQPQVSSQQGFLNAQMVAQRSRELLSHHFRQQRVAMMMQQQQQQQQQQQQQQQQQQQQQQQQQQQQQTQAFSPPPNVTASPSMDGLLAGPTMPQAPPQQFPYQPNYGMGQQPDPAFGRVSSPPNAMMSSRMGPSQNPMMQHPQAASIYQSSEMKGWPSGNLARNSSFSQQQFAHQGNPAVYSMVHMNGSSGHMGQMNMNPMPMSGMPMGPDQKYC

[27] = biological target: Peroxisome proliferator-activated receptor gamma/Nuclear receptor coactivator 1 (Homo sapiens, UniProt P37231); type: functional;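 note: agonist potency as compounds enhance coactivator SRC-1 recruitment to PPARgamma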
[28] = biological target: Acyl-homoserine lactone acylase PvdQ (Pseudomonas aeruginosa (strain LESB58), UniProt Q9I194); test: P. aeruginosa PvdQ acylase inhibitors, dose response, biochemical, fluorescence, plate reader and imaging, cherry-picks (AID 493231)
Sequence of Acyl-homoserine lactone acylase PvdQ (Q9I194 24-193 limits assumed): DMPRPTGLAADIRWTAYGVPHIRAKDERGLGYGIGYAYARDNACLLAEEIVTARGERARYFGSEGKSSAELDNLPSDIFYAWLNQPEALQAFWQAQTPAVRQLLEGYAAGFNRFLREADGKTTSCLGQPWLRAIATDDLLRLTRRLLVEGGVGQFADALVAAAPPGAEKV
Sequence of Acyl-homoserine lactone acylase PvdQ (Q9I194 217-762 limits assumed): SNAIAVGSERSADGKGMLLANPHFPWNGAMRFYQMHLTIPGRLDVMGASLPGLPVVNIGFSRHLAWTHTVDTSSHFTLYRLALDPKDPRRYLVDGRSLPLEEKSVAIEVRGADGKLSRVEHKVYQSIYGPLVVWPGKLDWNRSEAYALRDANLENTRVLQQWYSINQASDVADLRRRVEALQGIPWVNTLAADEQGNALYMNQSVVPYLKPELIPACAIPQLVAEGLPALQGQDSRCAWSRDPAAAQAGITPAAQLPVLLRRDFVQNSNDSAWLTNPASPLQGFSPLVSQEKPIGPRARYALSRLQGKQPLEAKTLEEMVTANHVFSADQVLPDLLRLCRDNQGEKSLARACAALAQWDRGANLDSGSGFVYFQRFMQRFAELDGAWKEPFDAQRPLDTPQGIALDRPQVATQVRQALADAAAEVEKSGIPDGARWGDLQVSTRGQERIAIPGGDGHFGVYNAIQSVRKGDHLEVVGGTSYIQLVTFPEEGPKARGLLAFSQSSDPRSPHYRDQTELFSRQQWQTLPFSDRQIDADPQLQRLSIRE

[29] = tested on: Vero; test: cells; type: functional; conditions: Chlorocebus sabaeus
[30] = tested on: HEK293; test: cells; type: functional, cell-based; conditions: Homo sapiens
[31] = tested on: HEK293; test: NOD1 signaling inhibitors, primary screen, cell-based, luminescence, uHTS (AID 1578); type: functional; conditions: Homo sapiens
[32] = tested on: HEK293; test: cells; type: functional, cell-based; conditions: Homo sapiens; remark: listed apart in the source
[33] = tested on: HEK293; test: NOD2 signaling inhibitors in MDP-stimulated cells, cell-based, uHTS, luminescence (AID 2001); type: functional; conditions: Homo sapiens
[34] = A Cell Based Secondary Assay To Explore Cytotoxicity of Compounds that Sensitize Mycobacterium Tuberculosis to Beta-Lactam Antibiotics.; type: functional
[35] = tested on: Vero; test: cells; type: functional, cell-based; conditions: Chlorocebus sabaeus
[36] = biological target: T10, Type-1 angiotensin II receptor (Homo sapiens, UniProt P30556); test: AT1 receptor antagonists, dose response, selectivity assay for APJ receptor antagonist project, cell-based, uHTS hits (AID 463214); type: functional;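 note: antagonist potency against angiotensin II stimulated AT1 response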
T10 sequence (P30556 whole entry): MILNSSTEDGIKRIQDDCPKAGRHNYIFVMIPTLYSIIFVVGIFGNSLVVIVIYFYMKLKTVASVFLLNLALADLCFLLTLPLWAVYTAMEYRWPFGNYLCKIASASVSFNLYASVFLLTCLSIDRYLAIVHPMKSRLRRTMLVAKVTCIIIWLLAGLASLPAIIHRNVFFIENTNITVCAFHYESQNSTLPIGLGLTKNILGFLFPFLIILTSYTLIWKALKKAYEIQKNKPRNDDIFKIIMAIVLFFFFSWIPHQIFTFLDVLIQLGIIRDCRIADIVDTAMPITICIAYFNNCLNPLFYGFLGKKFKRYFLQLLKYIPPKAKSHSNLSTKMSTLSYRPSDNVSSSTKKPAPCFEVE

[37] = biological target: Beta-galactosidase (Escherichia coli, UniProt Q8VNN2); test: PubChem AID 485352; type: functional

SMILES: COc1ccc(N)cc1-n1cnnn1
- IC50 [1]: > 100 µM (active)

SMILES: O=C(COC(=O)c1cncc(Br)c1)NCc1ccco1
- IC50 [2]: 46.9 µM (active)
- IC50 [3]: 4.6 µM (active)

SMILES: C[N+](C)(C)C/C=C1/COCO1
- IC50 [4]: 1.89 µM (active)
- EC50 [5]: 17.6 µM (not active)
- EC50 [6]: > 29.9 µM (inactive)
- IC50 [7]: > 29.9 µM (inactive)
- IC50 [8]: 1.89 µM (active)
- EC50 [9]: 4.76 µM (active)

SMILES: CC1(C)Cc2c(ccc3ccccc23)/C(=C/C(=O)N2CCCCC2)N1
- AC50 [10]: 26.1 µM (active)
- IC50 [11]: 11 µM (inactive)

SMILES: COc1cccc(C2C3CN(C)CC=C3C(C#N)=C(N)C2(C#N)C#N)c1OC (stereo unspecified)
- EC50 [12]: 8.49 µM (active)
- EC50 [13]: 2.18 µM (inconclusive)
- IC50 [11]: 2.74 µM (active)

SMILES: CS(=O)(=O)c1ccc(Sc2nc3ccccc3s2)c([N+](=O)[O-])c1
- AC50 [10]: 4.87 µM (active)
- CC50 [14]: 18.3 µM (active)
- AC50 [15]: 9.73 µM (active)
- AC50 [16]: 31.2 µM (active)
- IC50 [17]: 79.5 µM (inactive)

SMILES: COc1ccc(-c2csc(NC(=O)c3ccccc3NS(=O)(=O)c3ccc(C)cc3)n2)cc1
- IC50 [18]: 6.12 µM (active)
- IC50 [19]: 60.1 µM (active)
- IC50 [20]: 3.03 µM (active)
- IC50 [21]: 10.2 µM (active)
- IC50 [22]: 6.07 µM (active)

SMILES: COCCCn1c(S)nnc1-c1ccc(Cl)cc1
- IC50 [23]: > 100 µM (inactive)
- IC50 [24]: 4.57 µM (active)

SMILES: CC(C)c1ccc(OCC(=O)NC(=S)Nc2ccc3c4c(cccc24)CC3)cc1
- EC50 [25]: > 79.4 µM (not active)
- EC50 [26]: > 79.4 µM (not active)
- EC50 [27]: > 79.4 µM (not active)

SMILES: CCOc1ccc(-n2cccc2C=O)cc1
- AC50 [28]: 7.29 µM (active)

SMILES: Cc1cc(NC(=O)c2cc(F)c(F)cc2Cl)no1
- AC50 [28]: 24 µM (active)

SMILES: Cn1c(/C=C/c2ccc(Br)cc2)c([N+](=O)[O-])c(=O)n(C)c1=O
- CC50 [29]: 12.1 µM (active)
- IC50 [30]: 14.3 µM (active)
- EC50 [31]: 14.4 µM (active)
- IC50 [32]: 4.31 µM (active)
- IC50 [33]: 4.87 µM (active)
- CC50 [14]: 16 µM (active)
- CC50 [34]: 21.9 µM (active)
- IC50 [35]: 23.9 µM (active)

SMILES: COc1ccc(NC2(c3ccc(Cl)cc3)C(=O)c3ccccc3C2=O)cc1
- IC50 [36]: 17.9 µM (active)
- EC50 [37]: > 40 µM (inactive)
- IC50 [1]: > 100 µM (active)

SMILES: CCn1c(SCC(=O)Nc2ccc(Cl)cc2)nc2nc3c(cc2c1=O)CCCC3
- EC50 [25]: > 79.4 µM (not active)
- EC50 [26]: > 79.4 µM (not active)
- EC50 [27]: > 79.4 µM (not active)

SMILES: CC(C)(C)c1ccc2c(c1)OC(C(=O)N/N=C\c1ccc(-c3cccc(C(=O)O)c3)o1)CO2 (stereo unspecified)
- IC50 [20]: > 50 µM (active)
